Reference: US20120316187A1, “MOLECULAR BIOMARKERS FOR PREDICTING RESPONSE TO TYROSINE KINASE INHIBITORS IN LUNG CANCER” (PANGAEA BIOTECH, S.L., priority 2009, published 2012)
Like-named read-outs stand apart in the source and are kept apart here.

Key:
T790M resistance mutants = conditions: in vitro; cited from earlier work
[1] = system: non-small-cell lung cancer patients with EGFR mutations; conditions: for TTP (months): first line treatment with erlotinib
Source text: The term “clinical response”, as used herein, refers to the response of the subject suffering from NSCLC to a therapy with a tyrosine kinase inhibitor. Standard criteria (Miller, et al. Cancer, 1981; 47:207-14) that can be used herewith to evaluate the response to chemotherapy include response, stabilization and progression. It can be a complete response (or complete remission) which is the disappearance of all detectable malignant disease or a partial response which is defined as approximately >50% decrease in the sum of products of the largest perpendicular diameters of one or more lesions (tumor lesions), no new lesions and no progression of any lesion. Patients achieving complete or partial response were considered “responders”, and all other patients were considered “non-responders”.
The presence of the T790M mutation was examined in 129 patients for whom pretreatment tumor tissue was available.

[2] = 81 patients, BRCA1 4.92-10.7 N = 27
[3] = 81 patients, BRCA1 >10.7 N = 27
[4] = 81 patients, BRCA1 ≦4.92 N = 27
[5] = 129 patients, patients with the T790M mutation
[6] = 129 patients, patients without the T790M mutation
[7] = patients with the T790M mutation, BRCA1 4.92-11.79
[8] = patients with the T790M mutation, BRCA1 >11.79
[9] = patients with the T790M mutation, BRCA1 ≦4.92
[10] = patients without the T790M mutation, BRCA1 4.92-11.79
[11] = patients without the T790M mutation, BRCA1 >11.79
[12] = patients without the T790M mutation, BRCA1 ≦4.92

CC#CC(=O)Nc1ccc2ncnc(Nc3cccc(Br)c3)c2c1 [CL-387,785]
inhibition of growth of the T790M resistance mutants (T790M resistance mutants): inhibit the growth of the T790M resistance mutants

C#Cc1cccc(Nc2ncnc3cc(OCCOC)c(OCCOC)cc23)c1 [erlotinib, [6,7-bis(2-methoxyethoxy)-4-quinazolin-4-yl]-(3-ethynylphenyl)amine]
median progression-free survival ([1]; 28 patients harboring the T790M mutation, high BRCA1 levels): 8 months
median progression-free survival ([1]; 28 patients harboring the T790M mutation, intermediate BRCA1 levels): 4 months
median progression-free survival ([1]; 28 patients harboring the T790M mutation, low BRCA1 levels): 19 months
progression-free survival ([1]; 34 patients receiving erlotinib as first-line treatment (so in the source), high BRCA1 levels): 9 months
progression-free survival ([1]; 34 patients receiving erlotinib as first-line treatment (so in the source), intermediate BRCA1 levels): 24 months
progression-free survival ([1]; 34 patients receiving erlotinib as first-line treatment (so in the source), low BRCA1 levels): not reached
progression-free survival ([1]; 47 patients receiving erlotinib as first-line treatment, high BRCA1 levels): 16 months
progression-free survival ([1]; 47 patients receiving erlotinib as first-line treatment, intermediate BRCA1 levels): 9 months
progression-free survival ([1]; 47 patients receiving erlotinib as first-line treatment, low BRCA1 levels): 27 months
median progression-free survival ([1]; 53 patients without the T790M mutation, high BRCA1 levels): 12 months
median progression-free survival ([1]; 53 patients without the T790M mutation, intermediate BRCA1 levels): not reached
median progression-free survival ([1]; 53 patients without the T790M mutation, low BRCA1 levels): 27 months
progression-free survival ([1]; 64 patients receiving erlotinib as second-line treatment, with the T790M mutation): 13 months
progression-free survival ([1]; 64 patients receiving erlotinib as second-line treatment, without the T790M mutation): 18 months
progression-free survival ([1]; 65 patients receiving erlotinib as first-line treatment, with the T790M mutation): 8 months
progression-free survival ([1]; 65 patients receiving erlotinib as first-line treatment, without the T790M mutation): 18 months
Complete or partial response, (%) [1, 2]: (72) %
Complete response, (%) [1, 2]: (16) %
Partial response, (%) [1, 2]: (56) %
Progressive disease, (%) [1, 2]: (12) %
Stable disease, (%) [1, 2]: (16) %
Complete or partial response, (%) [1, 3]: (68.2) %
Complete response, (%) [1, 3]: (9.1) %
Partial response, (%) [1, 3]: (59.1) %
Progressive disease, (%) [1, 3]: (9.1) %
Stable disease, (%) [1, 3]: (22.7) %
Complete or partial response, (%) [1, 4]: (76) %
Complete response, (%) [1, 4]: (20) %
Partial response, (%) [1, 4]: (56) %
Progressive disease, (%) [1, 4]: (8) %
Stable disease, (%) [1, 4]: (16) %
Median progression-free survival to erlotinib ([1]; 81 patients, high BRCA1 levels): 10 months
Median progression-free survival to erlotinib ([1]; 81 patients, intermediate BRCA1 levels): 18 months
Overall survival ([1]; 81 patients, intermediate or high BRCA1 levels): not reached
Median progression-free survival to erlotinib ([1]; 81 patients, low BRCA1 levels): 27 months
Overall survival ([1]; 81 patients, low BRCA1 levels): 33 months
Overall survival [1, 5]: 27 months
median progression-free survival [1, 5]: 12 months
Overall survival [1, 6]: 29 months
median progression-free survival [1, 6]: 18 months
Complete or partial response, (%) ([1]; All patients N = 129): (68.9) %
Complete response, (%) ([1]; All patients N = 129): (10.3) %
Partial response, (%) ([1]; All patients N = 129): (58.6) %
Progressive disease, (%) ([1]; All patients N = 129): (12.9) %
Stable disease, (%) ([1]; All patients N = 129): (18.1) %
Complete or partial response, (%) ([1]; T790M-negative N = 84): (72.3) %
Complete response, (%) ([1]; T790M-negative N = 84): (13.9) %
Partial response, (%) ([1]; T790M-negative N = 84): (58.3) %
Progressive disease, (%) ([1]; T790M-negative N = 84): (11.1) %
Stable disease, (%) ([1]; T790M-negative N = 84): (16.7) %
Complete or partial response, (%) ([1]; T790M-positive N = 45): (63.6) %
Complete response, (%) ([1]; T790M-positive N = 45): (4.5) %
Partial response, (%) ([1]; T790M-positive N = 45): (59.1) %
Progressive disease, (%) ([1]; T790M-positive N = 45): (15.9) %
Stable disease, (%) ([1]; T790M-positive N = 45): (20.5) %
TTP (months) ([1]; T790M mutation No, BRCA1 levels High/Intermediate): 18 months
TTP (months) ([1]; T790M mutation No, BRCA1 levels Low): 27 months
TTP (months) ([1]; T790M mutation Yes, BRCA1 levels High/Intermediate): 3 months
TTP (months) ([1]; T790M mutation Yes, BRCA1 levels Low): 27 months
Complete or partial response, number of patients [1, 7]: 5
Complete or partial response, share in parentheses [1, 7]: (55.6)
Complete response, number of patients [1, 7]: 0
Complete response, share in parentheses [1, 7]: (0)
Partial response, number of patients [1, 7]: 5
Partial response, share in parentheses [1, 7]: (55.6)
Progressive disease, number of patients [1, 7]: 2
Progressive disease, share in parentheses [1, 7]: (22.2)
Stable disease, number of patients [1, 7]: 2
Stable disease, share in parentheses [1, 7]: (22.2)
Complete or partial response, number of patients [1, 8]: 7
Complete or partial response, share in parentheses [1, 8]: (77.8)
Complete response, number of patients [1, 8]: 1
Complete response, share in parentheses [1, 8]: (11.1)
Partial response, number of patients [1, 8]: 6
Partial response, share in parentheses [1, 8]: (66.7)
Progressive disease, number of patients [1, 8]: 1
Progressive disease, share in parentheses [1, 8]: (11.1)
Stable disease, number of patients [1, 8]: 1
Stable disease, share in parentheses [1, 8]: (11.1)
Complete or partial response, number of patients [1, 9]: 7
Complete or partial response, share in parentheses [1, 9]: (70)
Complete response, number of patients [1, 9]: 1
Complete response, share in parentheses [1, 9]: (10)
Partial response, number of patients [1, 9]: 6
Partial response, share in parentheses [1, 9]: (60)
Progressive disease, number of patients [1, 9]: 1
Progressive disease, share in parentheses [1, 9]: (10)
Stable disease, number of patients [1, 9]: 2
Stable disease, share in parentheses [1, 9]: (20)
Complete or partial response, number of patients [1, 10]: 13
Complete or partial response, share in parentheses [1, 10]: (76.5)
Complete response, number of patients [1, 10]: 4
Complete response, share in parentheses [1, 10]: (23.5)
Partial response, number of patients [1, 10]: 9
Partial response, share in parentheses [1, 10]: (52.9)
Progressive disease, number of patients [1, 10]: 1
Progressive disease, share in parentheses [1, 10]: (5.9)
Stable disease, share in parentheses [1, 10]: (17.6)
Complete or partial response, number of patients [1, 11]: 7
Complete or partial response, share in parentheses [1, 11]: (63.6)
Complete response, number of patients [1, 11]: 1
Complete response, share in parentheses [1, 11]: (9.1)
Partial response, number of patients [1, 11]: 6
Partial response, share in parentheses [1, 11]: (54.5)
Progressive disease, number of patients [1, 11]: 1
Progressive disease, share in parentheses [1, 11]: (9.1)
Stable disease, share in parentheses [1, 11]: (27.3)
Complete or partial response, number of patients [1, 12]: 13
Complete or partial response, share in parentheses [1, 12]: (81.3)
Complete response, number of patients [1, 12]: 4
Complete response, share in parentheses [1, 12]: (25)
Partial response, number of patients [1, 12]: 9
Partial response, share in parentheses [1, 12]: (56.3)
Progressive disease, number of patients [1, 12]: 1
Progressive disease, share in parentheses [1, 12]: (6.3)
Stable disease, number of patients [1, 12]: 2
Stable disease, share in parentheses [1, 12]: (12.5)
progression-free survival ([1]; subgroup of 48 patients with L858R, with the T790M mutation): 16 months
progression-free survival ([1]; subgroup of 48 patients with L858R, without the T790M mutation): 15 months
progression-free survival ([1]; subgroup of 81 patients with del 19, with the T790M mutation): 12 months
progression-free survival ([1]; subgroup of 81 patients with del 19, without the T790M mutation): 20 months
